From patent publication US10336746B1, “RAD51 inhibitors” (Cyteir Therapeutics, Inc., priority 2017, dated 2019)

Columns and labels:
[1] = test system: WI-38 (Normal Human Lung Fibroblast); assay: Cell line screen, WI-38; type: cell-based; details: AICDA Expression Negative
Experimental: (§1) The activity of the claimed compounds was measured in a variety of cell lines with different expression levels of activation induced cytidine deaminase (AICDA). The potency assay was repeated in all of the listed cell lines and the EC50 values recorded.

[2] = Pharmacokinetic (PK) study, plasma by LC-MS; type: in vivo, Rat; details: po @ 80 mg/kg (30% PEG400, 10% Vitamin E TPGS in water); for half-life: plasma
Experimental: PK studies in mice were used to determine the fate of the compounds in a whole organism. Rats were treated with the compounds either orally of via IV at the indicated doses and followed for up to 24 hours. Plasma samples were taken at different time points and analyzed by LC-MS.

CCRF-SB (Leukemia) = assay: Cell line screen, CCRF-SB; type: cell-based; details: Homo sapiens, AICDA Expression High
Experimental: as §1

Daudi (Lymphoma) = assay: Cell line screen, Daudi; type: cell-based; details: Homo sapiens, AICDA Expression High
Experimental: as §1

[3] = test system: WI-38 cells (AID negative); assay: Primary screening cell killing assay repeated in WI-38 cells (AID negative); type: cell-based; details: Homo sapiens, 168 h, cell death on Day 7, Cell-Titer Glo
In short: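 Cell-killing counter-screen in AID-negative WI-38 cells, probing RAD51 inhibition via AID/RAD51 synthetic lethality. Viability luminescence (RLU) was media-subtracted, normalized to DMSO wells, and converted to percent kill (1 − normalized RLU) × 100; EC50 came from non-linear regression on a semi-log scale.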

SMILES	EC50 [1] [nM]	F (%) @ 5 mg/kg ([2]; Rat Female) [%]	F (%) @ 5 mg/kg ([2]; Rat Male) [%]	half-life ([2]; Rat Female) [h]	half-life ([2]; Rat Male) [h]	EC50 (CCRF-SB (Leukemia)) [nM]	EC50 (Daudi (Lymphoma)) [nM]	EC50 [3] [nM]
CC(C)OC(=O)N[C@H]1CC[C@H](c2ncc(-c3ccc(NC(=O)NCc4ccccc4)cc3S(=O)(=O)NC(C)(C)C)s2)CC1 [Ex. 66A, trans-isopropyl N-[4-[5-[4-(benzylcarbamoylamino)-2-(tert-butylsulfamoyl)phenyl]thiazol-2-yl]cyclohexyl]carbamate]	> 10000	3.31	2.55	2.59	1.86	183	18	> 1000
CC(C)OC(=O)Nc1ccc(-c2cnc([C@H]3CC[C@H](NC(=O)OC(C)C)CC3)s2)c(S(=O)(=O)NC(C)(C)C)c1 [Ex. 67A, trans-isopropyl N-[3-(tert-butylsulfamoyl)-4-[2-[4-(isopropoxycarbonylamino)cyclohexyl]thiazol-5-yl]phenyl]carbamate]	> 10000	86.5	46.9	11.5	6.46	932	311	> 1000
